In test [1] the target is T1, human MRGPRX2 (Homo sapiens, UniProt Q96LB1).
T1 construct: expressed in transfected cells; host or cells: HEK293
T1 sequence (Q96LB1 1-330): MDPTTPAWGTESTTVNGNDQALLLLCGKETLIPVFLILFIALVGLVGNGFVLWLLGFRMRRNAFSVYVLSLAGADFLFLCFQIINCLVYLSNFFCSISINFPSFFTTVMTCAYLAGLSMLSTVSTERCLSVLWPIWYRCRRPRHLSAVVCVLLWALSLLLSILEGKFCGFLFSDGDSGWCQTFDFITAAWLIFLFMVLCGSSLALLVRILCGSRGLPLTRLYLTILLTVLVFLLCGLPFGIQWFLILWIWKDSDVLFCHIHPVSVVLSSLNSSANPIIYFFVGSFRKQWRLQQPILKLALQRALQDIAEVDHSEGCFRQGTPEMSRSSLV
The test is described as follows: MRGPRX2 IP-1 Gq HTRF assay in HEK293 cells stably expressing human MRGPRX2, Cortistatin-14 at EC75. It is filed as cell-based. The conditions noted are these: 2 hours at 37° C., cellular IP-1. The method, then:
HEK293 cells stably expressing human MRGPRX2 were grown in Dulbecco's Modified Eagle Medium (DMEM) supplemented with 10% fetal bovine serum (FBS), 1% Glutamax, and 1 μg/mL of puromycin. Cells were maintained in a 37° C., 5% CO2 humidified incubator.
Cells were plated in a 384-well assay plate at a density of 20,000 cells per well overnight. Compounds were solubilized at 10 mM in DMSO and added as a 10-point curve using an ECHO acoustic liquid handler. On the day of the assay, Cortistatin-14 was diluted in assay buffer (provided by IP-One-Gq-HTRF kit purchased from Cisbio, 62IPAPEJ) and added to the assay plate at a final concentration corresponding to the predetermined EC75. Plates were incubated at 37° C. for 2 hours prior to addition of HTRF detection reagents per the manufacturer's instructions. The plates were read on a Perkin Elmer Envision plate reader. The HTRF ratio and cellular IP-1 levels were calculated. XLfit was used to calculate an EC50 value for each compound using a 4-parameter logistic curve fitting model. EC50 ranges are reported as follows: A<100 nM; B 0.1-1 μM; C>1 μM.

Test [2] addresses T2, MRGPRX2 LAD2 (Homo sapiens, UniProt Q96LB1).
T2 construct: host or cells: LAD2 human mast cells
T2 sequence (Q96LB1 1-330): T1 sequence (Q96LB1 1-330)
Nature of the test: LAD2 β-hexosaminidase release assay (degranulation), Cortistatin-14 at EC75. It is filed as cell-based. The conditions noted are these: LAD2 cells; 1 hour compound incubation, Cortistatin-14 at EC75 for 30 minutes; percent degranulation (β-hexosaminidase).

Usually EC50 stands for the concentration that produces a half-maximal response. A lower EC50 goes with an effect from little substance.

For `COc1ccc(C(=O)N[C@H]2C[C@@H](Nc3cc(C(F)(F)F)nc4ccc(Cl)cc34)CN(C(C)=O)C2)cc1` [Example 25], the EC50 in test [1] and in test [2] was below 100 nM in each case.

Take `CC(=O)N1C[C@@H](NC(=O)c2cnn(CC(F)(F)F)c2)C[C@@H](Nc2cc(C(F)(F)F)nc3ccc(Cl)cc23)C1` [Example 29]: the EC50 in test [1] and in test [2] was below 100 nM in each case.

`CC(=O)N1C[C@@H](NC(=O)c2cnn(C)c2)C[C@@H](Nc2cc(C(F)(F)F)nc3ccc(Cl)cc23)C1` [Example 30]: the EC50 in test [1] and in test [2] was below 100 nM throughout.

Take `CC(=O)N1C[C@@H](NC(=O)c2cnn(C3CC3)c2)C[C@@H](Nc2cc(C(F)(F)F)nc3ccc(Cl)cc23)C1` [Example 32]: the EC50 in test [1] and in test [2] was 100 to 1000 nM throughout.

As for `CC(=O)N1C[C@@H](NC(=O)c2cccc(C(C)(C)O)c2)C[C@@H](Nc2cc(C(F)(F)F)nc3ccc(Cl)cc23)C1` [Example 41], the EC50 in test [1] is 100 to 1000 nM; in test [2], below 100 nM.

In the case of `CC(=O)N1C[C@@H](NC(=O)c2cccc(C(F)F)c2)C[C@@H](Nc2cc(C(F)(F)F)nc3ccc(Cl)cc23)C1` [Example 42], the EC50 in test [1] and in test [2] was below 100 nM each time.

For the compound `CC(=O)N1C[C@@H](NC(=O)c2cccc(NS(=O)(=O)C(F)(F)F)c2)C[C@@H](Nc2cc(C(F)(F)F)nc3ccc(Cl)cc23)C1` [Example 43], the EC50 is 100 to 1000 nM in test [1] and below 100 nM in test [2].

(Values after patent US20250313569A1, “Pharmaceutical Compounds And Compositions As Modulators Of MAS-Related G-Protein Receptor X2” (Enanta Pharmaceuticals, Inc., priority 2024, published 2025).)
